Structures can show the parent of a compound that is named as a salt.
What follows are compounds tested on IL-4 stimulated expression of CD23 in human Ramos B cells (JAK-1 and JAK-3) (assay: Assay for Ramos B-Cell Line Stimulated with IL-4 (CD23 upregulation, FACS)). Details: Homo sapiens, Ramos, Ramos B cells stimulated with IL-4, CD23 expression by FACS; read-out: IC50, Example 41.
Assay type: cell-based
How it was run: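 Human Ramos B cells in RPMI with 5% serum were pre-incubated with compound or DMSO for 1 h at 37 °C, then stimulated with IL-4 at a final 50 units/mL for 20-24 h. CD23 upregulation was measured by anti-CD23-PE staining and flow cytometry, and IC50 values were calculated.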
CCNC(=O)NCc1ccc(Nc2nc(Nc3ccc(S(N)(=O)=O)cc3)ncc2F)cc1 [III-119, N2-(4-Aminosulfonylphenyl)-N4-(4-ethylaminocarbonylaminomethylphenyl]-5-fluoro-2,4-pyrimidinediamine] gave an IC50 of 1300 nM. With CN1C(=O)C(C)(C)S(=O)(=O)c2ccc(Nc3nc(Nc4cccc(S(N)(=O)=O)c4)ncc3F)cc21 [VII-11, N2-(3-Aminosulphonylphenyl)-5-fluoro-N4-(2,2,4-trimethyl-1,1,3-trioxo-benzo[1,4]thiazin-6-yl)-2,4-pyrimidinediamine] the IC50 was 602 nM. Cc1cc(O)nc2ccc(Nc3nc(Nc4cccc(S(N)(=O)=O)c4)ncc3F)cc12 [VII-74, N2-(3-Aminosulfonylphenyl)-5-fluoro-N4-(2-hydroxy-4-methylquinolin-6-yl)-2,4-pyrimidinediamine] was tested, and the IC50 was 4560 nM. For CCCCNS(=O)(=O)c1cccc(Nc2ncc(F)c(Nc3ccc(C)c(C#N)c3)n2)c1 [VI-96, N2-(3-Butylaminosulfonylphenyl)-N4-(3-cyano-4-methylphenyl)-5-fluoro-2,4-pyrimidinediamine], the IC50 was 803 nM. For CCN(CC)S(=O)(=O)c1ccc(OC)c(Nc2nc(Nc3ccc4c(c3)NC(=O)C(C)(C)O4)cc(C(=O)OC)n2)c1 [Compound X-2], the IC50 was 1840 nM. With C#CCn1ccc2ccc(Nc3nc(Nc4ccc(C)c(S(N)(=O)=O)c4)ncc3F)cc21 [IX-3, N2-(3-Aminosulfonyl-4-methylphenyl)-5-fluoro-N4-[1-(propyn-3-yl)indol-6-yl]-2,4-pyrimidinediamine] the IC50 was 115 nM. Compound CCC(=O)NS(=O)(=O)c1cc(Nc2ncc(F)c(Nc3ccc(CCC#N)c(C)c3)n2)ccc1C [VI-103, N4-[4(2-Cyanoethyl)-3-methylphenyl]-5-fluoro-N2-(4-methyl-3-propionylaminosulfonylphenyl)-2,4-pyrimidinediamine] has an IC50 of 3080 nM.

Same assay, conditions: Homo sapiens, Ramos, Ramos B-cell line stimulated with IL-4; CD23 expression by FACS; read-out: IC50, Example 41
In the case of NS(=O)(=O)c1cccc(Nc2ncc(F)c(Nc3ccc(OCC(=O)N4CCOCC4)cc3)n2)c1 [Compound I-211, N2-(3-Aminosulfonylphenyl)-5-fluoro-N4-[4-(2-morpholin-4-yl-2-oxo-ethoxy)phenyl]-2,4-pyrimidinediamine], the IC50 is reported as 1050 nM. Cc1cc(Nc2nc(Nc3cccc(S(N)(=O)=O)c3)ncc2F)ccc1OCc1ccccn1 [Compound I-167, N2-(3-Aminosulfonylphenyl)-5-fluoro-N4-[(4-((pyridin-2-yl)methoxy)-3-methylphenyl)]-2,4-pyrimidinediamine] gave an IC50 of 142 nM. In the case of CN(C)C(=O)COc1ccc(Nc2nc(Nc3cccc(S(N)(=O)=O)c3)ncc2F)cc1 [Compound I-129, N2-(3-Aminosulfonylphenyl)-N4-(4-dimethylaminocarbonylmethoxyphenyl)-5-fluoro-2,4-pyrimidinediamine], the IC50 is reported as 612 nM. NS(=O)(=O)c1ccc(Nc2ncc(F)c(Nc3ccc(OCC(=O)N4CCOCC4)cc3)n2)cc1 [Compound I-210, N2-(4-Aminosulfonylphenyl)-5-fluoro-N4-[4-(2-morpholin-4-yl-2-oxo-ethoxy)phenyl]-2,4-pyrimidinediamine] gave an IC50 of 866 nM.

Same assay, conditions: Ramos B cells stimulated with IL-4, CD23 expression by FACS; read-out: IC50, Example 41
With Cc1cc(COc2ccc(Nc3nc(Nc4ccc5c(c4)S(=O)(=O)NC5=O)ncc3F)cc2)no1 [VIII-1, 5-Fluoro-N4-[4-(5-methylisoxazol-3-yl)methyleneoxyphenyl]-N2-(sacchrin-6-yl)-2,4-pyrimidinediamine] the IC50 was 1590 nM. Compound “N4-(2-Amino-3-methoxypyrid-6-yl)-N2-[3-(ethoxycarbonylmethylene)aminosulfonylphenyl)-5-fluoro-2,4-pyrimidinediamine [VII-10]” has an IC50 of 863 nM. Work on CNS(=O)(=O)c1cc(Nc2ncc(F)c(Nc3ccc(C(=O)N4CCSCC4)cc3)n2)ccc1C [IX-33, 5-Fluoro-N2-[3-(N-methylaminosulfony)-4-methylphenyl]-5-fluoro-N4-[4-(4-thiomorpholino)carbonylphenyl]-2,4-pyrimidinediamine] yielded an IC50 of 521 nM. Compound CNS(=O)(=O)c1cccc(Nc2nc(Nc3cccc(S(N)(=O)=O)c3)ncc2F)c1 [IV-11, N2-(3-Aminosulfonylhenyl)-5-fluoro-N4-[3-(N-methylaminosulfonyl)phenyl]-2,4-pyrimidinediamine] has an IC50 of 367 nM. In the case of CC(=O)N1CCN(C(=O)c2ccc(Nc3nc(Nc4cccc(S(N)(=O)=O)c4)ncc3F)cc2)CC1 [IX-23, N4-[4-(1-Acetyl-4-piperizinyl)carbonylphenyl]-N2-(3-Aminosulfonylphenyl)-5-fluoro-2,4-pyrimidinediamine], the IC50 is reported as 9580 nM. In the case of CCOC(=O)CN(c1ccc(OC)c(Cl)c1)c1nc(Nc2ccc(C)c(S(N)(=O)=O)c2)ncc1C(=O)OCC [VI-25, N2-(3-Aminosulfonyl-4-methylphenyl)-5-carboethoxy-N4-(N-carboethoxymethylene-N-3-chloro-4-methoxyphenyl)-2,4-pyrimidinediamine], the IC50 is reported as 9910 nM. Compound COc1ccc(CN2C(=O)C(C)Oc3ccc(Nc4nc(Nc5cccc(S(N)(=O)=O)c5)ncc4F)cc32)cc1 (racemic) [Compound V-5, Racemic N2-(3-Aminosulphonylphenyl)-5-fluoro-N4-[2-methyl-3-oxo-4-(4-methoxybenzyl)-benz[1,4]oxazin-6-yl]-2,4-pyrimidinediamine] has an IC50 of 696 nM.

Same assay, conditions: Ramos B-cell line stimulated with IL-4; CD23 expression by FACS; read-out: IC50, Example 41
In the case of CN1CCN(S(=O)(=O)c2cccc(Nc3ncc(F)c(Nc4cccc(OCC(N)=O)c4)n3)c2)CC1 [Compound I-89, N4-(3-Aminocarbonylmethoxy)phenyl-5-fluoro-N2-[3-(4-methylpiperazin-1-yl)sulfonyl]phenyl-2,4-pyrimidinediamine], the IC50 is reported as 5500 nM. In the case of Cc1cc(COc2ccc(N(C)c3nc(Nc4ccc(C)c(S(N)(=O)=O)c4)ncc3F)cc2)no1 [Compound I-225, N2-(3-Aminosulfonyl-4-methylphenyl)-5-fluoro-N4-methyl-N4-[4-(5-methylisoxazol-3-yl)methyleneoxyphenyl]-2,4-pyrimidinediamine], the IC50 is reported as 700 nM. In the case of CN(C(=O)CC#N)c1ccc(Nc2nc(Nc3cccc(S(N)(=O)=O)c3)ncc2F)cc1 [Compound I-86, N2-(3-Aminosulfonylphenyl)-N4-[4-(N-cyanoacetyl-N-methyl)aminophneyl]-5-fluoro-2,4-pyrimidinediamine], the IC50 is reported as 916 nM. Compound Cc1cnc(Nc2ccc(S(N)(=O)=O)cc2)nc1Nc1ccc(OCc2ccccn2)cc1 [Compound I-181, N2-(4-Aminosulfonylphenyl)-5-methyl-N4-[4-(2-pyridinyl)methyleneoxyphenyl]-2,4-pyrimidinediamine] has an IC50 of 13 nM. In the case of CCOc1cc(Nc2nc(Nc3ccc(C)c(S(=O)(=O)NC)c3)ncc2F)ccc1-c1ccccn1 [Compound I-170, 5-Fluoro-N2-[3-N-(methyl)aminosulfonyl-4-methylphenyl]-N4-[4-(2-pyridinyl)-3-methylmethyleneoxyphenyl]-2,4-pyrimidinediamine], the IC50 is reported as 451 nM. In the case of Cc1cc(COc2ccc(Nc3nc(Nc4ccc(C)c(S(=O)(=O)NC(=O)C(C)C)c4)ncc3F)cc2)no1 [Compound I-229, 5-Fluoro-N4-[4-(5-methylisoxazol-3-yl)methyleneoxyphenyl]-N2-(4-methyl-3-(2-methylpropionyl)aminosulfonylphenyl)-2,4-pyrimidinediamine], the IC50 is reported as 3760 nM.

Same assay, conditions: Ramos B-cell line stimulated with IL-4; CD23 expression by FACS; sodium salt; read-out: IC50, Example 41
With CC(=O)NS(=O)(=O)c1cc(Nc2ncc(F)c(Nc3ccc(OCC#N)cc3)n2)ccc1C [Compound I-38, N2-(3-Acetylaminosulfonyl-4-methyl)phenyl-N4-(4-cyanomethyleneoxy)phenyl-5-fluoro-2,4-pyrimidinediamine sodium salt] the IC50 was 6440 nM.
